Where a SMILES comes first, the peptide text is derived from it. Bridges are numbered along the chain shown (N, C = ends). [ ]: non-standard residue; d: D form. The star is where a group is joined. X1 = CC[C@H](C)CCCCC(=O)*; Dab = NCC[C@H](N)C(=O)O
Assays:
[1] = tested on: Pasteurella multocida strains; test: Checkerboard combination susceptibility testing (MIC in combination, FIC index); assay type: cell-based; details: colistin combined with gamithromycin, 37°C 24 h
Protocol: The susceptibility of the selected P. multocida isolates and the quality control isolate (ATCC 25922) to colistin, gamithromycin, cefquinome, enrofloxacin, tilmicosin, tylosin tartrate, and florfenicol alone was determined using the microdilution method in broth (conducted in triplicate) according to the guiding principles of the CLSI. Based on the action mechanism of each drug, the antimicrobial activity of colistin or cefquinome (drug A) in combination with gamithromycin, enrofloxacin, tilmicosin, tylosin tartrate, or florfenicol (drug B) was determined with the checkerboard method, according to the minimal inhibitory concentration (MIC) of each drug. Briefly, 50 μL of MH II broth was added to each well, and 50 μL of the indicated concentration of colistin or cefquinome was added into the first well of each line. This was followed by multiproportion dilution. Next, 50-μL samples of different concentrations of gamithromycin or the other drugs mentioned above were added to the dilution medium, and a 100 μL inoculum with a cell density of ∼1 × 10^6 colony-forming units (CFU)/mL was added to each well. The plates were then incubated at 37°C for 24 h. According to the EUCAST definitive document E.Def 1.2 ([Mccullough, 2010]), the fractional inhibitory concentration (FIC) index for combined administrations was defined as the sum of the FIC of drug A and the FIC of drug B, where FIC is the MIC of the drug combined with other drugs, divided by the MIC of the drug alone.

[2] = tested on: Pasteurella multocida strains (D18, T5, and WJ11); test: Mutant prevention concentration (MPC); assay type: cell-based; details: drug alone, agar, 72 h, 37°C
Protocol: The bacteria-containing broth was centrifuged at 3500 g for 15 min and resuspended in fresh MH II broth to obtain a solution containing 3 × 10^10 CFU/mL of P. multocida. The agar plates were produced by adding different concentrations of colistin and gamithromycin alone or in combination into the Mueller-Hinton agar medium supplemented with sterile defibrinated sheep blood. Aliquots of 100-μL inoculum were plated on four agar plates containing the same concentration of drug(s). Mutant prevention concentration (MPC) was defined as the lowest concentration that prevented the growth of bacteria after 72 h of incubation at 37°C.

[3] = tested on: Pasteurella multocida strains (D18, T5, and WJ11); test: In vitro postantibiotic effect (PAE); assay type: cell-based; details: 1 h exposure
Protocol: For determination of the postantibiotic effect (PAE) of colistin, gamithromycin was tested on D18, T5, and WJ11 isolates alone and in combination with colistin, and a 1 × 10^8 CFU/mL inoculum of each isolate was used after overnight incubation in MH II broth. A 0.5-mL sample of the inoculum and 0.5 mL of colistin or gamithromycin alone at 1 × or 4 × MIC, was added to 4 mL of fresh broth and incubated in a 37°C water bath for 1 h. Meanwhile, the same operation was performed for combinations of colistin at 0.25–0.5 mg/L and gamithromycin at 0.125–0.25 mg/L. Controls without drugs were included. Each inoculum was diluted 1000-fold after incubation for 1 h, and this was the starting point for PAE testing (0 h). Aliquots of 0.1 mL were withdrawn to count the bacterial burden as described above in time-kill tests at 0, 1, 2, 4, and 6 h. PAE was calculated using the equation: PAE = T – C, where T and C represent the time taken for drug-exposed (T) and control (C) cultures to increase by 1 log10 after drugs were removed ([Mackenzie and Gould, 1993]).

[4] = PK in plasma and lung tissue of neutropenic lung-infected mice; details: for AUC(0-t): Plasma AUClast; for Cmax: Plasma Cmax
Source text: (§1) Five-week-old specific-pathogen-free female Institute of Cancer Research (ICR) mice weighing 20–22 g obtained from the Laboratory Animal Center of the Southern Medical University (SCXK 2016-0041, Guangzhou) were used in this experiment. Animals were maintained in the Laboratory Animal Center of the South China Agricultural University (SYXK 2014-0136, Guangzhou) in accordance with the National Standards for Laboratory Animals in China (GB 14925–2010). Neutropenia was generated by intraperitoneal injection of cyclophosphamide [TCI (Shanghai) Development Co., Ltd., Shanghai, China) 4 days before the 150-mg/kg dose and 1 day before the 100-mg/kg dose prior to lung infection ([Vogelman et al., 1988]). Three strains, namely, D18, T5, and WJ11, were incubated in MH II broth. Experimental mice were anesthetized via inhalation of isoflurane and then were hung on an adjustable-angled bracket by hooking their teeth. Endotracheal intubation was performed by importing 50 μL of a logarithmic-phase bacterial suspension (10^8–10^9 CFU/mL) into the lung through the larynges rimae using a preinserted tracheal tube ([Zhou et al., 2018]). All experimental protocols were approved by the Committee on the Ethics of Animals of South China Agricultural University.
Pharmacokinetics analysis of colistin (2.5 and 5 mg/kg), gamithromycin (1.5, 3, 6, 12, and 24 mg/kg) alone and in combination (2.5 mg/kg colistin, 3 mg/kg gamithromycin) was performed in 176 neutropenic lung-infected ICR mice following subcutaneous administration (SC). Plasma and lung tissue samples were withdrawn at the specified time point (four mice at each time point).
The concentration of colistin and gamithromycin in plasma and lung tissue was measured using a previously reported method ([Ma et al., 2008]; [Huang et al., 2010]; [Fu et al., 2018]). The limit of quantification for both colistin and gamithromycin was 0.01 mg/L in plasma and 0.2 μg/g in lung tissue. Recovery of colistin and gamithromycin in plasma and lung ranged between 88.2 and 113.1%. All inter- and intra-assay coefficients of variation were <10%. PK parameters in plasma and lung samples were estimated using a non-compartmental analysis method with WinNonlin software version 5.2.1 (Pharsight, St Louis, MO, United States).

[5] = tested on: Pasteurella multocida strains (D18, T5, and WJ11); test: In vivo pharmacodynamics, neutropenic murine pneumonia model
Source text: as §1

[6] = strain D18, 1 × MIC (colistin 32 mg/L, gamithromycin 0.5 mg/L)
[7] = strain T5, 1 × MIC (colistin 32 mg/L, gamithromycin 0.5 mg/L)
[8] = strain WJ11, 1 × MIC (colistin 1 mg/L, gamithromycin 0.5 mg/L)
[9] = colistin 2.5 mg/kg SC alone, neutropenic lung-infected mice, lung tissue
[10] = colistin 5 mg/kg SC alone, neutropenic lung-infected mice, lung tissue
[11] = female, ICR, mouse, in vivo, sc, 2.5 mg/kg, colistin 2.5 mg/kg SC alone, neutropenic lung-infected mice, total plasma
[12] = female, ICR, mouse, in vivo, sc, 2.5 mg/kg, given in combination SC (2.5 mg/kg colistin, 3 mg/kg gamithromycin), total plasma
[13] = female, ICR, mouse, in vivo, sc, 5 mg/kg, colistin 5 mg/kg SC alone, neutropenic lung-infected mice, total plasma
[14] = given in combination SC (2.5 mg/kg colistin, 3 mg/kg gamithromycin), lung tissue

CC[C@H](C)CCCCC(=O)N[C@@H](CCN)C(=O)N[C@H](C(=O)N[C@@H](CCN)C(=O)N[C@H]1CCNC(=O)[C@H]([C@@H](C)O)NC(=O)[C@H](CCN)NC(=O)[C@H](CCN)NC(=O)[C@H](CC(C)C)NC(=O)[C@@H](CC(C)C)NC(=O)[C@H](CCN)NC1=O)[C@@H](C)O [Colistin] (X1-[Dab]T[Dab][Dab][Dab][dL]L[Dab][Dab]T; lactam 4-C)
MIC (in combination) ([1]; strain CVCC 444): 0.125 µg/mL | MIC (in combination) ([1]; strain D18): 0.25 µg/mL | MIC (in combination) ([1]; strain PmP2 (pig)): 0.125 µg/mL | MIC (in combination) ([1]; strain PmP17 (pig)): 0.125 µg/mL | MIC (in combination) ([1]; strain T5): 0.125 µg/mL | MIC (in combination) ([1]; strain WJ11): 0.125 µg/mL | MIC (in combination) ([1]; strain WN71): 0.0625 µg/mL | MIC (in combination) ([1]; strain WW81): 0.5 µg/mL | MIC (in combination) ([1]; strain XX12): 0.125 µg/mL | MPC ([2]; strain D18): 128 mg/L | MPC ([2]; strain T5): 128 mg/L | MPC ([2]; strain WJ11): 64 mg/L | PAE [3, 6]: 0.98 h | PAE ([3]; strain D18, 4 × MIC): 3.79 h | PAE [3, 7]: 0.29 h | PAE ([3]; strain T5, 4 × MIC): 2.83 h | PAE [3, 8]: 0.96 h | PAE ([3]; strain WJ11, 4 × MIC): 2.34 h | Lung AUClast [4, 9]: 5.22 mg⋅h/kg | Lung Cmax [4, 9]: 3.37 mg/kg | Lung T1/2 [4, 9]: 76.8 min | Lung Tmax [4, 9]: 30 min | Plasma Tmax ([4]; colistin 2.5 mg/kg SC alone, neutropenic lung-infected mice, total plasma, non-compartmental): 30 min | Lung AUClast [4, 10]: 12.20 mg⋅h/kg | Lung Cmax [4, 10]: 5.54 mg/kg | Lung T1/2 [4, 10]: 103 min | Lung Tmax [4, 10]: 45 min | AUC(0-t) [4, 11]: 3510 ng·h/mL | AUC(0-t) [4, 12]: 3880 ng·h/mL | Cmax [4, 11]: 3140 ng/mL | Cmax [4, 12]: 3330 ng/mL | half-life ([4]; female, ICR, mouse, in vivo, sc, 2.5 mg/kg, Plasma T1/2, colistin 2.5 mg/kg SC alone, neutropenic lung-infected mice, total plasma): 40.2 min | half-life ([4]; female, ICR, mouse, in vivo, sc, 2.5 mg/kg, Plasma T1/2, given in combination SC (2.5 mg/kg colistin, 3 mg/kg gamithromycin), total plasma): 36.6 min | Tmax ([4]; female, ICR, mouse, in vivo, sc, 5 mg/kg): 45 min | AUC(0-t) [4, 13]: 10500 ng·h/mL | Cmax [4, 13]: 6330 ng/mL | half-life ([4]; female, ICR, mouse, in vivo, sc, 5 mg/kg, Plasma T1/2, colistin 5 mg/kg SC alone, neutropenic lung-infected mice, total plasma): 49.8 min | Lung AUClast [4, 14]: 5.10 mg⋅h/kg | Lung Cmax [4, 14]: 2.94 mg/kg | Lung T1/2 [4, 14]: 69.6 min | Lung Tmax [4, 14]: 30 min | in vivo PD outcome ([5]; colistin alone 2.5 or 5 mg/kg SC every 12 h, all three isolates, 24 h): failure to inhibit growth of bacteria

CCCN1C[C@H](C)[C@@H](O)[C@](C)(O)[C@@H](CC)OC(=O)[C@H](C)[C@@H](O[C@H]2C[C@@](C)(OC)[C@@H](O)[C@H](C)O2)[C@H](C)[C@@H](O[C@@H]2O[C@H](C)C[C@H](N(C)C)[C@H]2O)[C@](C)(O)C[C@H]1C [Gamithromycin]
MIC (in combination) ([1]; strain CVCC 444): 0.25 µg/mL | MIC (in combination) ([1]; strain D18): 0.0625 µg/mL | MIC (in combination) ([1]; strain PmP2 (pig)): 0.125 µg/mL | MIC (in combination) ([1]; strain PmP17 (pig)): 0.0625 µg/mL | MIC (in combination) ([1]; strain T5): 0.125 µg/mL | MIC (in combination) ([1]; strain WJ11): 0.25 µg/mL | MIC (in combination) ([1]; strain WN71): 0.25 µg/mL | MIC (in combination) ([1]; strain WW81): 0.25 µg/mL | MIC (in combination) ([1]; strain XX12): 0.0625 µg/mL | MPC ([2]; strain D18): 1 mg/L | MPC ([2]; strain T5): 1 mg/L | MPC ([2]; strain WJ11): 1 mg/L | PAE [3, 6]: 0.21 h | PAE ([3]; strain D18, 4 × MIC): 0.51 h | PAE [3, 7]: 0.54 h | PAE ([3]; strain T5, 4 × MIC): 1.83 h | PAE [3, 8]: 0.59 h | PAE ([3]; strain WJ11, 4 × MIC): 1.16 h | time of Cmax in lung tissue ([4]; mouse, in vivo): 0.25 to 1 h | Lung T1/2 ([4]; mouse, in vivo, SD): 1355 ± 111 min | Lung Tmax ([4]; mouse, in vivo, SD): 39 ± 17.4 min | Plasma T1/2 ([4]; mouse, in vivo, SD): 731.4 ± 19.8 min | Plasma Tmax ([4]; mouse, in vivo, SD): 27 ± 12.6 min | dose required for effective treatment ([5]; gamithromycin monotherapy every 12 h): ≥ 24 mg/kg

— paper PMC7536268, “Increased Antimicrobial Activity of Colistin in Combination With Gamithromycin Against Pasteurella multocida in a Neutropenic Murine Lung Infection Model” (Frontiers in Microbiology, 2020)
